Data reported in patent US11266743B2, “Peptide compositions and methods of use thereof” (priority 2017, dated 2022).
“Also recorded” adds a separate entry of the source.

Columns and labels:
Assay type in all cases: cell-based
P. aeruginosa biofilms = experiment: Activity against P. aeruginosa biofilms; settings: 25 μM
Description: Bacterial biofilm formation on implanted medical devices is a serious medical problem because these biofilms can lead to life-threatening systemic infections. We tested selected peptides and rationally designed variants against biofilms formed by P. aeruginosa. […] D-NOGCON reduces viable bacteria by 3.6 logs ( 1/3000 reduction) at 25 μM, while the best conventional antibiotic, Ciprofloxacin, reduced viable bacteria by only 1.7 logs ( 1/55 reduction) at 25 μM.

[1] = system: HeLa, RAW264.7, HepG2, and MCF-7 cells; experiment: TAMRA delivery assay (flow cytometry, confocal microscopy); settings: 0.5 μM CPP-TA + 4.5 μM CPP-C, 30 minutes at 4° C., 22° C., or 37° C.
Description: To determine the effect of the PNA cargo on delivery, we labeled CPPs, lacking the PNA705 cargo, with the fluorophore TAMRA on a C-terminal cysteine residue (CPP-TA) and measured delivery to multiple cell types. TAMRA-labelled CPPs, mixed with unlabeled CPPs at a 1:10 ratio in serum-free DMEM for a final concentration of 5 μM total peptide, was added to HeLa, RAW264.7, HepG2, and MCF-7 cells in 12-well cell culture plates and incubated for 30 minutes at 4° C., 22° C., or 37° C. prior to flow cytometric analysis (FIGS. 9-16). […] Delivery of TAMRA was verified by confocal microscopy for each cell type.
Hela, RAW264.7, HCT116, HepG2, and MCF-7 cells were plated in 12-well plates at 100,000 cells/well. After 24 hours, cells were gently washed in PBS, topped with 500 μl of CPP-TA solution containing 0.5 μM CPP-TA+4.5 uM CPP-C in sfDMEM without phenol red, and incubated for 30 min at either 4° C., 23° C., or 37° C. The incubation solution was aspirated and cells were treated with 100 μl 0.025% Trypsin for 3 minutes at 23° C. 500 μl DMEM containing 2% FBS, 125 nM Sytox Green, and 20 mM HEPES was used to suspend the cells. Cells were transferred to a filter-topped flow cytometry tube and analyzed on a BD™ LSR II flow cytometer. Cells displaying a normal morphology were gated and first analyzed for GFP fluorescence using the 488 nM laser. GFP negative cells were used to generate a histogram of TAMRA fluorescence, measured with the 543 nM laser.
Cells were treated as described above for the TAMRA delivery assay and immediately imaged to avoid artifacts resulting from fixation. The distribution of TAMRA and Sytox Green was analyzed using a confocal scanning Nikon Eclipse Ti2 inverted microscope using a 40× oil-immersion objective. Sytox Green was excited using the 488 nM laser and TAMRA was excited using the 543 nM laser.

[2] = system: Hela pTRE-LucIVS2-705 cells; experiment: PNA705 mediated luciferase splice correction (luminescence, RLU/μg protein)
Description: To assess nuclear cargo delivery and splice correction, PNA705 (SEQ ID NO: 11) was used. Luciferase production was quantified at both the protein (FIG. 6) and mRNA levels (FIG. 7). To quantify functional luciferase levels following splice correction, Hela pLuc705 cells were treated with a 2× serial dilution starting at 5 μM of CPP-PNA705 for 30 minutes in serum free DMEM at 37° C., washed in PBS, and allowed to recover for 24 hours in complete media. To assess the impact of endosomal entrapment and subsequent lysosomal degradation, some cells were co-treated with the endosomal acidification inhibitor chloroquine (120 μM) along with 5 μM CPP-PNA705. Cell lysates were assayed for luciferase by luminescence. To control for total cell density, lysates were also analyzed for total protein by the BCA assay.
Hela pTRE-LucIVS2-705 cells were seeded on flat-bottom 96-well plates at 10,000 cells per well in 200 μl complete DMEM. The following day, cells were washed in phosphate buffered saline and topped with premixed 50 μl 2× serum/phenol red free DMEM (Gibco)+50 μl peptide cleavage solution (ddH2O+peptide). Cells were transfected for 30 min at 37° C. with 5% CO2. The transfection solution was removed, cells were washed with PBS, and topped with 100 μl complete DMEM. The next day (24 hour recovery) cells were washed in PBS and lysed in 20 μl reporter lysis buffer (Promega E4030) following the manufacturers protocol. 10 μl of the lysate was removed and total protein concentration was determined using the bicinchoninic acid assay (Pierce BCA Protein Assay-ThermoFisher 23225). The 96-well plate containing the remaining 10 μl lysate was analyzed for luminescence using the Luciferase Assay System (Promega E1500) on a BioTek SYNERGY™ 2 plate reader with injector ports. Data was expressed as Relative Luminescence Units/μg Protein (RLU/μg Protein) and positive wells were defined as those whose RLU/μg Protein values exceeded the average for the plate by at least three standard deviations. […]

Hela pTRE-LucIVS2 cells = experiment: ALAMARBLUE toxicity assay of CPP-PNA705; settings: 10 μM CPP-PNA705 conjugate, after 24 hours
Description: CPP-PNA705 cytotoxicity was assessed using several methods known in the art. A Lactate Dehydrogenase (LDH) assay (FIG. 5A) measured the acute cytotoxicity and detects LDH released by cells because of membrane damage resulting from exposure to the CPPs. An ALAMARBLUE® assay (FIG. 5B) and a Bicinchoninic Acid (BCA) Assay (FIG. 5C) both measure the impact of exposure after 24 hours. In the ALAMARBLUE®, assay some reduction in metabolic activity was detected in Hela705 cells treated with 20 μM CPP-PNA705 concentrations for 1 hour.
Hela pTRE-LucIVS2 cells were plated in 96-well plates at 10,000 cells/well. After 24 hours, cells were treated with CPP constructs for 1 Hr in sfDMEM at 37° C., washed in PBS, and allowed to recover for 24 hours in 100 μl complete media. 10 μl ALAMARBLUE® (ThermoFisher) was added to each well and cells were incubated fo4r 2 Hrs at 37° C. Reduction of ALAMARBLUE® was determined by fluorescence at […].

[3] = system: Hela cells stably transfected with mCherry and GFP1-10; experiment: Split GFP assay (GFP-11 delivery); settings: all concentrations and temperatures studied
Description: To test the ability of CPPs to deliver other cargoes, specifically a protease-sensitive peptide cargo, we modified the well-known split-GFP assay. CPPs were tested for the ability to deliver the polar 16-residue GFP-11 peptide across the membrane barrier. This peptide rescues the fluorescence of the cytosolic endogenous, non-fluorescent GFP1-10 protein. Here, we stably transfected Hela cells with a plasmid containing the full length mCherry and the non-fluorescent GFP1-10. Following incubation with CPP-GFP-11 constructs at multiple concentrations and temperatures for 30 minutes in serum free DMEM, cells were analyzed by flow cytometry for mCherry and GFP fluorescence (FIG. 17). Live cells expressing mCherry (˜50% of the total cells) were gated and their GFP fluorescence was analyzed. Unlike the luciferase splice correction assay where a single corrected mRNA transcript serves as template for many molecules of functional luciferase, the split GFP assay is stoichiometric; a single GFP-11 peptide can bind to a single GFP1-10 protein producing a finite fluorescent response.
Hela cells were transfected with p_mCherry-GFP1-10 (Addgene plasmid #78591) using LIPOFECTAMINE® 3000 (ThermoFisher). Single mCherry positive cells were sorted into 96-well plates using a BD™ FACSARIA™ cell sorter and colonies were maintained under G418 selection at […]. Stably transfected cells were plated in 12-well plates at 100,000 cells/well and grown overnight in complete DMEM. Cells were washed in PBS and incubated in 500 μl of CPP-GFP-11 solution at variable concentrations at 23° C. and 37° C. for 30 minutes. The CPP-GFP-11 solution was aspirated and 100 μl of 0.025% trypsin solution was added to each well. After detachment, cells were suspended in 500 μL of PBS+2% FBS and 20 mM HEPES. Cells were analyzed using a BD™ LSRII flow cytometer. Cells displaying a normal morphology were gated and first analyzed for mCherry fluorescence using the 543 nM laser. mCherry+ cells were used to generate a histogram of GFP fluorescence measured with the 488 nM laser.

| Compound | reduction of viable bacteria in biofilm (P. aeruginosa biofilms) | TAMRA delivery (words, rank order) [1] | efficiency of PNA705 delivery in cell culture (words, rank order) [2] | reduction in metabolic activity (Hela pTRE-LucIVS2 cells) | GFP-11 delivery [3] |
| --- | --- | --- | --- | --- | --- |
| O=C(O)c1cn(C2CC2)c2cc(N3CCNCC3)c(F)cc2c1=O [Ciprofloxacin, reference compound] | 1.7 logs | – | – | – | – |
| RKKRWFRRRRPKWKK [CPP-1] | – | CPP-2»CPP-3=CPP-1>CPP-4>TAT=penetratin | most efficient at PNA delivery | 20% | deliver GFP-11 to more cells than Tat and penetratin; also recorded: most efficient at GFP-11 delivery |
| RRKKIWFRRLRMK [CPP-4] | – | CPP-2»CPP-3=CPP-1>CPP-4>TAT=penetratin; also recorded: does not deliver GFP-11 or TAMRA significantly | successfully delivers PNA705 | little effect | does not deliver GFP-11 or TAMRA significantly |
